SMILES strings stand for the structures.

The assay relates to HD-Drosophila expressing mutant HTT97Q. Put plainly: Rough eye phenotype in HD-Drosophila (Gmr-HTT97Q). The class given is in vivo, Drosophila melanogaster. Conditions: 10 μM 6CR in media, 4-day-old progenies. As to the method:
The Gmr-ga14-UAS-HTT97Q/cyo line expressing HTT97Q under the control of Gmr-gal4 in compound eyes was provided by MT SU (National Taiwan Normal University, Taipei, Taiwan). Fly stock was maintained and crossed at 25° C. on a standard cornmeal yeast agar medium.
In each compound treatment experiment, 15 Gmr-ga14-UAS-HTT97Q/cyo male flies were crossed with 15 Gmr-ga14-UAS-HTT-97Q/cyo females in a vial containing 10 mL of media supplemented with the testing compound at a final concentration of 10 μM 6CR (Sigma) or/and 100 μM Tropolone (Sigma). 6-chloropurine riboside (6CR) is a chemical reagent that inhibits the activity of SUPT4H by preventing the complex formation of SUPT4H/SUPT5H (Patent No.: US2018/0064744A1). Parent flies were removed after 7 days, and 4-day-old progenies carrying one Gmr-ga14-UAS-HTT97Q allele were collected for eye morphology examination. […] In each treatment group, flies were analyzed and normalized with control flies. […]
Please refer to FIG. 8. […] After parent fly removal, the 4-day-old progenies carrying one Gmr-ga14-UAS-HTT97Q allele were collected and analyzed for eye morphology. […] 4-day-old progenies as described above were collected and analyzed the levels of mutant HTT by Western blotting. α-tubulin was included and served as a loading control. […]

Consider `OC[C@H]1O[C@@H](n2cnc3c(Cl)ncnc32)[C@H](O)[C@@H]1O` [6-chloropurine riboside (6CR), 6-chloropurine riboside], for which the “rescue of rough eye phenotype, 6CR alone” value is “rescue effect”.

These data come from patent publication US11891601B2, “Method to enhance the transcription regulation of SUPT4H on genes containing repetitive nucleotide sequences” (National Yang-Ming University, priority 2018, dated 2024).
